From patent US7361459B2, “Antiviral inhibition of capsid proteins” (University of Maryland, Baltimore County, priority 2002, dated 2008)
Read-outs that look alike come from different tables or passages of the source.

What was measured:
protease = protease (Human immunodeficiency virus type 1 group M subtype B, UniProt P04585); assay: In vitro protease activity; type: biochemical
[1] = test system: HIV-1 capsid core assembly; type: cell-based; settings: particles from treated U1 cells
Experimental: Treated (CAP-1) and untreated virus-producing U1 cells were pelleted, washed in phosphate-buffered saline (PBS) and resuspended in at least ten cell pellet volumes of fixative (100 mM sodium cacodylate, pH 7.2, 2.5% glutaraldehyde, 1.6% paraformaldehyde, 0.5% picric acid). Cells were fixed for 24-48 hours, after which fixative was removed and cells were washed twice in PBS and pelleted in eppendorf centrifuge tubes. Washed cell pellets were post-fixed one hour in 1% osmium tetroxide plus 0.8% potassium ferricyanide in 100 mM sodium cacodylate, pH 7.2. After thorough rinsing in water, cells were pre-stained in 4% uranyl acetate one hour, thoroughly rinsed, dehydrated, infiltrated overnight in 1:1 acetone:Epon 812, infiltrated one hour with 100% Epon 812 resin, and embedded in the resin. After polymerization, 60-80 nm thin sections were cut on a Reichert untramicrotome, stained 5 minutes in lead citrate, rinsed, post-stained 30 minutes in uranyl acetate, rinsed and dried. EM was performed at 60 kV on a Philips CM120/Biotwin equipped with a 1024×1024 Gatan multiscan CCD, and images were collected at original magnifications of 25,880×-36,960×, corresponding t resolutions of 8.9 and 6.5 Å/pixel, respectively. For each sample, 4 separate EM grids were viewed, and at least 47 were collected, corresponding to a minimum total area of 35 micron^2.

Gag polyprotein = assay: p24 (CA) Western blot of Gag and its cleavage products, U1 cells; type: cell-based, HIV-1
Experimental: U1 cells (5×10^5 cells/ml) were mixed with TNF-α (10 ng/ml, Sigma) for activation of HIV virion production and treated with CAP-1 at different concentrations. Cultures were harvested 72 hours after treatment. Cell viability was measured using the MTS cell proliferation assay (CellTiter 96 Aqueous One Solution Cell Proliferation Assay, Promega, Madison, Wis.). Supernatants were collected, the cell debris removed by low speed centrifugation, and the particles in the supernatants pelleted by microcentrifugation. Infectious units associated with the particles were measured as described in Kimpton, et al., Detection of replication-competent and pseudotyped HIV with a sensitive cell line on the basis of activation of an integrated β-galactosidase gene, J. Virol. 66: 2232-39, 1992, except that β-gal activities were measured using a Tropix Gal-Screen detector system (Applied Biosystems, Foster City, Calif.). Particle-associated RT activities were determined as described in Huang, et al., p6Gag is required for particle production from full length human immunodeficiency virus type 1 molecular clones expressing protease, J. Virol., […]: 6810-18, 1995. Cell lysates and pelleted particles were subjected to SDS-PAGE analysis using AIDS patient sera (AIDS Research and Reference Regent Program, NIAID, NIH). Quantitative p24 (CA) assays were performed with the HIV-1 p24 Antigen Capture ELISA kit (AIDS vaccine program, FCRDC/SAIC/NCI, Frederick, Md.). MAGI cells were washed after viral adsorption (HIV-1RF) with PBS and were fed fresh media containing CAP-1 at various concentrations. […] Virus particles present on the supernatants were collected by microcentrifugation and particle-associated RT activity and infectivity were subsequently measured.
(§1) To determine if CAP-1 affects viral gene expression and particle production, reverse transcriptase (RT) activity and CA (p24) levels were measured for the supernatants after pelleting and removal of the cells. […] Quantitation of gp120 was also obtained for the supernatant using antibodies against gp120.

[2] = target: T1, HIV-1 capsid protein N-terminal domain (Human immunodeficiency virus type 1 group M subtype B, UniProt P12493); assay: 1H-15N HSQC NMR titration, binding to the apical cleft; settings: for binding to the capsid NTD, from chemical shift changes (in words): 1H-15N HSQC, FIGS. 13-14
T1 construct: DNA encoding the CA N-terminal domain (residues 1-151); made in house
Source text: DNA encoding the CA N-terminal domain (residues 1-151) was amplified from HIV-1 cDNA plasmid pNL-4-3 and an oligonucleotide encoding a C-terminal hexahistidine tag was appended to the gene. The DNA was inserted into a p11a expression vector (Novagen, Madison, Wis.), and the protein product was purified by cobalt affinity chromatography (Clontech, Palo Alto, Calif.); MWcalc=17523.0 daltons, MWobs=17523.10±0.44 daltons (electrospray Mass Spectrometry). The plasmid for the full length, native capsid protein was kindly provided by Dr. W. I. Sundquist (University of Utah, Salt Lake City, Utah), and the protein was purified as described. NMR spectra were assigned using conventional triple resonance methods. Binding isotherms from ^1H-^15N NMR HSQC titration experiments were calculated with ORIGIN 7.0 software (MicroCal, Northampton, Mass.).
To identify compounds that inhibit functions of the capsid protein, public domain chemical libraries were screened for compounds that might bind to clefts on the surface of the capsid protein and tested for binding using NMR titration spectroscopy. Screening efforts focused mainly on a β-hairpin cleft that is exposed on the surface of the N-terminal domain of the immature capsid protein but becomes occupied by residues of a β-hairpin that forms after proteolytic cleavage of Gag.
The mature N-terminal domain was titrated with N-(3-chloro-4-methylphenyl)-N′-[2-thioethyl-2′-[5-(dimethylaminomethyl)]-2-methylfuryl ]urea (CAP-1).

gp120 = assay: Quantitation of gp120 in supernatant with antibodies against gp120; type: cell-based, HIV-1
Experimental: as §1

U1 cells = assay: Cell viability / toxicity, MTS cell proliferation assay; settings: for toxicity (in words): latent infected U1 cells
Experimental: (§2) U1 cells (5×10^5 cells/ml) were mixed with TNF-α (10 ng/ml, Sigma) for activation of HIV virion production and treated with CAP-1 at different concentrations. Cultures were harvested 72 hours after treatment. Cell viability was measured using the MTS cell proliferation assay (CellTiter 96 Aqueous One Solution Cell Proliferation Assay, Promega, Madison, Wis.). Supernatants were collected, the cell debris removed by low speed centrifugation, and the particles in the supernatants pelleted by microcentrifugation. Infectious units associated with the particles were measured as described in Kimpton, et al., Detection of replication-competent and pseudotyped HIV with a sensitive cell line on the basis of activation of an integrated β-galactosidase gene, J. Virol. 66: 2232-39, 1992, except that β-gal activities were measured using a Tropix Gal-Screen detector system (Applied Biosystems, Foster City, Calif.). Particle-associated RT activities were determined as described in Huang, et al., p6Gag is required for particle production from full length human immunodeficiency virus type 1 molecular clones expressing protease, J. Virol., […]: 6810-18, 1995. Cell lysates and pelleted particles were subjected to SDS-PAGE analysis using AIDS patient sera (AIDS Research and Reference Regent Program, NIAID, NIH). Quantitative p24 (CA) assays were performed with the HIV-1 p24 Antigen Capture ELISA kit (AIDS vaccine program, FCRDC/SAIC/NCI, Frederick, Md.). MAGI cells were washed after viral adsorption (HIV-1RF) with PBS and were fed fresh media containing CAP-1 at various concentrations. 72 hours post-infection, the culture supernatants were harvested and pre-cleared. Virus particles present on the supernatants were collected by microcentrifugation and particle-associated RT activity and infectivity were subsequently measured.
The CAP compounds were tested for toxicity and antiviral activity using HIV-1 producing, latent infected U1 cells. This assay allows assessment of antiviral effects on late phase replication events.

Gag = Gag (Human immunodeficiency virus type 1 group M subtype B, UniProt P12493); assay: Mass action calculation of CAP-1 bound to CA/Gag in immature virions; parameters: species or system HIV-1
Experimental: This is likely due to the high local concentration of Gag molecules in assembled virions (14 mM), which favors binding by ligands with even modest affinities, e.g., N-(3-chloro-4-methylphenyl)-N′-[2-thioethyl-2′-[5-(dimethylaminomethyl)]-2-methylfuryl]urea (CAP-1). Thus conservatively assuming that cytosolic drug concentrations in the budding virus and cells are equal (100 μM), the percentage of viral CAP-1 molecules bound to CA can be estimated by standard mass action calculations which affords a value for the concentration of bound CAP-1 ([CA:CAP-1]) of 94 μM.

HIV-1 CA = HIV-1 CA (Human immunodeficiency virus type 1 group M subtype B, UniProt P12493); settings: for initial assembly rate: 350 nm, 21° C., no compound 204±36
Experimental: Turbidity assays were performed at 21° C. using a Beckman DU650 spectrophotometer operating at 350 nm wavelength. Concentrated ligand in DMSO (0.2 μl) was added to a 250 μl aqueous solution containing the capsid protein ([CA]=60 μM; [NaH2PO4]=50 mM; pH 8.0). Particulates were removed by centrifugation, and capsid assembly was initiated by addition of a concentrated NaCl solution (5 M, 250 μl). Spectral measurements were made every 10 s, following a short initial delay to allow sample equilibration. Relative assembly rates were estimated from initial slopes of the plots of absorbance vs. time.
Tube formation leads to increases in sample turbidity that can be monitored spectrophotometrically, and this assay was used to probe for potential inhibitory effects of the CAP compounds on in vitro capsid assembly.

HIV-1 [3] = assay: Virus production: particle-associated RT activity and CA (p24) levels in U1 supernatants; type: cell-based; settings: U1 cells
Experimental: (§3) U1 cells (5×10^5 cells/ml) were mixed with TNF-α (10 ng/ml, Sigma) for activation of HIV virion production and treated with CAP-1 at different concentrations. Cultures were harvested 72 hours after treatment. Cell viability was measured using the MTS cell proliferation assay (CellTiter 96 Aqueous One Solution Cell Proliferation Assay, Promega, Madison, Wis.). Supernatants were collected, the cell debris removed by low speed centrifugation, and the particles in the supernatants pelleted by microcentrifugation. Infectious units associated with the particles were measured as described in Kimpton, et al., Detection of replication-competent and pseudotyped HIV with a sensitive cell line on the basis of activation of an integrated β-galactosidase gene, J. Virol. 66: 2232-39, 1992, except that β-gal activities were measured using a Tropix Gal-Screen detector system (Applied Biosystems, Foster City, Calif.). Particle-associated RT activities were determined as described in Huang, et al., p6Gag is required for particle production from full length human immunodeficiency virus type 1 molecular clones expressing protease, J. Virol., 96: 6810-18, 1995. […] Quantitative p24 (CA) assays were performed with the HIV-1 p24 Antigen Capture ELISA kit (AIDS vaccine program, FCRDC/SAIC/NCI, Frederick, Md.). […]

HIV-1 [4] = assay: Infectious units of particles from latent infected U1 cells; type: cell-based
Experimental: as §3

HIV-1RF = assay: Virus particle infectivity and RT activity from infected MAGI cell cultures; type: cell-based
Experimental: as §2

[5] = as a function of increasing CAP-1

Cc1ccc(NC(=O)NCCSCc2ccc(CN(C)C)o2)cc1Cl [CAP-1, N-(3-chloro-4-methylphenyl)-N′-[2-thioethyl-2′-[5-(dimethylaminomethyl)]-2-methylfuryl]urea]
in vitro protease activity (in words) (protease): did not affect
particles with a cone-shaped core (in words) [1]: none
particles containing a dense, centrally located core ([1]; untreated 70%): 35%
intracellular levels of Gag (p55) (in words) (Gag polyprotein; [5]): reduction
levels of Gag cleavage products p24 and p41 (in words) (Gag polyprotein; [5]): remained relatively unaffected
proteolytic processing of Gag (in words) (Gag polyprotein; p24 Western, treated vs untreated): does not significantly affect
binding to the capsid NTD, from chemical shift changes (in words) [2]: bind to the apical site of the protein
gp120 in supernatant, treated vs untreated (in words) (gp120): No differences
cell viability (in words) (U1 cells; 100 μM, U1 cells, 72 hours): fully viable
tolerability in cell cultures (in words) (U1 cells; cell cultures): particularly well-tolerated
toxicity (in words) (U1 cells; 72 hours): non-toxic
CAP-1 molecules in immature virions bound to Gag (Gag; 100 μM dose): 94%
concentration of bound CAP-1 ([CA:CAP-1]) (Gag; 100 μM drug, 14 mM Gag in assembled virions): 94 µM
effect on the rate of assembly (in words) (HIV-1 CA): diminished in a dose-dependent manner
initial assembly rate (HIV-1 CA; compound:CA ratio 1:1): 93±3 mOD/min
initial assembly rate (HIV-1 CA; compound:CA ratio 2:1): 67±16 mOD/min
CA (p24) levels of supernatants (in words) (HIV-1 [3]): unaffected
RT activities of supernatants (in words) (HIV-1 [3]): unaffected
effect on supernatant infectivity (in words) (HIV-1 [4]): dose dependent reductions
reduction of infectivity relative to untreated samples (HIV-1 [4]; 100 μM, 72 hours): ca. 95%
infectious units, of the untreated levels (HIV-1RF; 100 μM, MAGI cells, 72 hours post-infection): less than 2%
viral RT activity (in words) (HIV-1RF; MAGI cells): No reductions
virus production after pre-incubation of MAGI cells or virus particles (in words) (HIV-1RF; pre-incubation with CAP-1): unaffected

O=C(Nc1cccc(C(F)(F)F)c1)Nc1ccc(F)c([N+](=O)[O-])c1 [CAP-6, N-(3-nitro-4-fluorophenyl)-N′-[3-(1,1,1-trifluoromethyl)phenyl] urea]
binding to the capsid NTD, from chemical shift changes (in words) [2]: capsid binding

N-[(3-chloro-4-methyl phenyl)-N′,N′-propyl] urea [CAP-7]
binding to the capsid NTD, from chemical shift changes (in words) [2]: capsid binding

Cc1ccc(NC(=O)Nc2ccc(C(Cl)(Cl)Cl)cc2)cc1Cl [CAP-5, N-(3-chloro-4-methylphenyl)-N′-[4-(1,1,1-trichloromethyl)phenyl] urea]
binding to the capsid NTD, from chemical shift changes (in words) [2]: capsid binding

Cc1ccc(NC(=O)NC(C)C)cc1[N+](=O)[O-] [CAP-3, N-(2-propyl)-N′-(3-nitro-4-methylphenyl) urea]
binding to the capsid NTD, from chemical shift changes (in words) [2]: very weak binding

CC(=O)Nc1ccc(NC(=O)Nc2ccc(C)c([N+](=O)[O-])c2)cc1 [CAP-2, N-(4-N-acetamidophenyl)-N′-(3-nitro-4-methylphenyl) urea]
binding to the capsid NTD, from chemical shift changes (in words) [2]: bind to the apical site of the protein
Kd ([2]; NMR titration, 1:1 binding isotherms): 52 ± 27 µM
toxicity (in words) (U1 cells; 72 hours): too cytotoxic
effect on the rate of assembly (in words) (HIV-1 CA): diminished in a dose-dependent manner
initial assembly rate (HIV-1 CA; compound:CA ratio 0.5:1): 81±2 mOD/min
initial assembly rate (HIV-1 CA; compound:CA ratio 1:1): 39±11 mOD/min

Cc1ccc(NC(=O)Nc2ccc(C#N)cc2)cc1Cl [CAP-4, N-(3-chloro-4-methylphenyl)-N′-(4-cyanophenyl) urea]
binding to the capsid NTD, from chemical shift changes (in words) [2]: very weak binding
